Entries after “also recorded” stand apart in the source; their conditions may differ.
Legend:
[1] = system: IFNE1 mRNA in HCT116 cells; assay: QRT-PCR of IFNE1 transcript level in HCT116 cells treated with CDK and non-CDK inhibitors; assay type: cell-based, human; conditions: 6 hours, P276-00 250 nM, Flavopiridol 200 nM, Fascaplysin 500 nM, Roscovitine 20 μM, Olomoucine 180 μM, DRB 50 μM, 5-Fluorouracil 800 nM, Camptothecin 30 nM, Etoposide 3 μM, Vinblastin 1.5 μM, Quercitin 750 nM, Paclitaxel 600 nM, Doxorubicin 100 nM
Method: HCT116 cells were treated with various CDK inhibitors [P276-00 (250 nM), Flavopiridol (200 nM), Fascaplysin (500 nM), Roscovitine (20 μM), Olomoucine (180 μM), 5,6-dichloro-1-beta-D-ribofuranosylbenzimidazole (DRB, 50 μM)] and non-CDK inhibitors [5-Fluorouracil (800 nM), Camptothecin (30 nM), Etoposide (3 μM), Vinblastin (1.5 μM), Quercitin (750 nM), Paclitaxel (600 nM), Doxorubicin (100 nM)] for 6 hours. The level of IFNE1 mRNA was estimated using Real Time RT-PCR. Using Actin gene for normalization, relative IFNE1 expression level was plotted as log fold change.
To study if IFNE1 expression is a result of CDK inhibition, HCT116 cells were treated with a variety of CDK and non-CDK inhibitors and IFNE1 transcript level were measured using quantitative QRT-PCR. HCT116 cells were chosen for this assay because IFNE1 level seems to be most regulated in this cell line. The cells were treated with a variety of CDK inhibitors [P276-00 (250 nM), Flavopiridol (200 nM), Fascaplysin (500 nM), Roscovitine (20 μM), Olomoucine (180 μM), 5,6-dichloro-1-beta-D-ribofuranosylbenzimidazole (DRB) (50 μM)] and non-CDK inhibitors [5-Fluorouracil (800 nM), Camptothecin (30 nM), Etoposide (3 μM), Vinblastin (1.5 μM), Quercitin (750 nM), Paclitaxel (600 nM), Doxorubicin (100 nM)] for 6 hours and the IFNE1 transcript level were estimated. All inhibitors were purchased from Sigma and used at IC50 values described in literature.

[2] = system: IFNE1 gene in HCT116 xenografts; assay: Oligonucleotide microarray expression profiling of IFNE1 in HCT116 xenografts treated with P276-00 or Flavopiridol; assay type: in vivo, SCID mice
Method: (§1) Colon carcinoma (HCT-116) cells were injected into severe combined immunodeficient (SCID) mice intraperitoneally. Xenografts were allowed to grow, typically for 7 days until the tumors reached a size of 5×5 mm before therapeutic agent administration. A total of 56 animals were used for the study. Animals that were treated with two consecutive day administrations of the agent/vehicle were considered as the acute treated group. The acute treated group of animals consisted of 8 sham treated, 10 Flavopiridol (2.5 mg/kg) treated, and P276-00 (35 mg/kg) treated mice. A similar group of animals was treated with either vehicle or agent for 6-7 days consecutively and was considered as the chronic treated group, as discussed below. The differences in the concentrations used reflect the differences in the IC50 values of the two therapeutic agents.
(§2) At the end of the acute/chronic treatments, the xenografts were excised from the animals and RNA was prepared using Trizol reagent (Sigma, USA) as per the manufacturer's protocol. Briefly, xenograft tissues were homogenized under liquid nitrogen and resuspended in Trizol ([…] tissue) followed by chloroform extraction. The RNA was precipitated in isopropanol and the pellet was washed using 70% ethanol. RNA samples thus obtained were resuspended in RNase-DNase free water. Quality and quantity of RNA was measured by spectrometry using ND-1000 spectrometer (Nanodrop, Wilmington, Del., USA).
To account for variability in gene expression in the xenografts before agent treatments, RNA samples from the respective control groups were pooled proportionally. Each of the P276/FP acute treated xenograft was, therefore, compared with pooled acute control RNA samples and the same method was adopted for the chronically treated samples. For microarray hybridization, a total of 20 μg of RNA was used for cDNA synthesis, which was indirectly labeled with Cy3 (pooled control) or Cy5 (individual treated xenograft) fluorescent dyes as described (Chinnaiyan AM et. al., Am J. Pathol. 2001 October; 159(4): 1199-209). A 23,290 oligonucleotide array (Illumina, USA) was spotted using the OmniGrid™ Genemachines. The slides were processed by standard procedures and hybridization was performed in the two-channel mode. Post hybridization, the slides were washed and scanned using GeneTAC UC-4 and images obtained were analyzed using the GenePix Pro 5.1. The median of ratios of intensities (Cy5/Cy3) obtained from the two channels was subjected to Cluster analysis and viewed using the Treeview program. Median of ratios above 2 is considered as significant upregulation of the specific gene in the drug treated xenograft and a value below 0.5 is considered as downregulation of the specific gene in the drug treated xenograft.
A total of 16 hybridizations representing 10 acute treatments (FIG. 1A) and 6 chronic treatments (FIG. 1B) were analyzed. Individual hybridizations were numbered according to acute (A) or chronic (C) treatment followed by the animal number and the respective agent used. For example, A20 (P276) identifies acute treated xenograft with P276-00 in the animal numbered 20.
The values represent the log of median of ratio for IFNE1 gene across different xenografts treated with either P276-00 or Flavopiridol. As mentioned before, a ratio value above 1 indicates a two-fold increase in the gene levels. The Cluster analysis identifies upregulation of IFNE1 consistently across both acute (Table 1A) and chronic (Table 1B) treatments of HCT116 xenografts.

[3] = system: IFNE1 gene expression in HCT116 xenografts; assay: Real Time Quantitative Reverse Transcriptase PCR of IFNE1 in HCT116 xenografts; assay type: in vivo, SCID mice; conditions: normalized to actin
Method: as §1, §2
IFNE1 expression in tumor tissues, after exposure to P276-00 or Flavopiridol, was further validated by RTQ-PCR. The primer sequences used for PCR analysis are as follows:
The actin (ACTB) gene is used as control for relative quantification, and the following primer sequences were used for its PCR analysis:
An aliquot of the RNA samples used for the microarray study was also used for Quantitative Real Time Reverse TRasncriptase PCR (QRT-PCR) analysis. […]

[4] = system: IFNE1 mRNA in HCT116 cells; assay: QRT-PCR of IFNE1 level in HCT116 cells treated with P276-00 or Flavopiridol; assay type: cell-based, human; conditions: for IFNE1 level relative to control untreated cells: at most time points (6, 12, 24 hours)
Method: (§3) FIGS. 3A, 3B and 3C show expression of IFNE1 in different cancer cell lines treated with P276-00 and Flavopiridol. The different cell lines were treated with the agent for the indicated times and the level of IFNE1 mRNA were estimated using Real Time RT-PCR. Using the Actin gene for normalization, IFNE1 expression level was plotted as log fold change relative to the signal from the control untreated cells.
(§4) The expression of IFNE1 in response to P276-00 or Flavopiridol was also studied in different cancer cell lines such as HCT116, HL-60 (leukemia) and Calu-1. HCT116, Calu-1, H460 and HL-60 cells were obtained from ATCC and were maintained in culture medium with 10% fetal bovine serum. P276-00 and Flavopiridol were synthesized in-house and 10 mM stocks in DMSO were used for the assays. HCT116 (FIG. 3A) cells in culture were treated with P276-00 and Flavopiridol at 200 nM and 250 nM respectively for 6 hours, 12 hours and 24 hours. HL-60 (FIG. 3B) cells were treated with 300 nM of P276-00 and […] of Flavopiridol for 3 hours, 6 hours, 12 hours and 24 hours and Calu-1 (FIG. 3C) cells were treated with 1.2 μM of P276-00 and 450 nM of Flavopiridol for 4 hours, 8 hours, 12 hours, 24 hours and 48 hours. RNA was prepared from the samples and QRT-PCR was performed to estimate level of IFNE1.

[5] = system: IFNE1 mRNA in HL-60 cells; assay: QRT-PCR of IFNE1 level in HL-60 cells treated with P276-00 or Flavopiridol; assay type: cell-based, human; conditions: at most time points (3, 6, 12, 24 hours)
Method: as §3, §4

[6] = system: IFNE1 mRNA in Calu-1 cells; assay: QRT-PCR of IFNE1 level in Calu-1 cells treated with P276-00 or Flavopiridol; assay type: cell-based, human; conditions: at most time points (4, 8, 12, 24, 48 hours)
Method: as §3, §4

`O=c1[nH]cc(F)c(=O)[nH]1` [5-Fluorouracil] was tested, and the “change of IFNE1 mRNA level” value [1] was “do not cause a change”.

`CC[C@@]1(O)C(=O)OCc2c1cc1n(c2=O)Cc2cc3ccccc3nc2-1` [Camptothecin] was tested, and the “change of IFNE1 mRNA level” value [1] was “do not cause a change”.

`CN1CC[C@@H](c2c(O)cc(O)c3c(=O)cc(-c4ccccc4Cl)oc23)[C@@H]1CO.Cl` [Compound P276-00, (+)-trans-2-(2-Chloro-phenyl)-5,7-dihydroxy-8-(2-hydroxymethyl-1-methyl-pyrrolidin-3-yl)-chromen-4-one hydrochloride] was tested, and the “log of median of ratio for IFNE1 gene” value ([2]; acute treatment (two consecutive days), xenograft A20, P276-00 35 mg/kg, log base 2 of Cy5/Cy3 vs pooled control) was 2.26, the “log of median of ratio for IFNE1 gene” value ([2]; acute treatment, xenograft A2, P276-00 35 mg/kg, log base 2 vs pooled control) was 1.107 and the “log of median of ratio for IFNE1 gene” value ([2]; acute treatment, xenograft A5, P276-00 35 mg/kg, log base 2 vs pooled control) was 1.966. The “log of median of ratio for IFNE1 gene” value ([2]; acute treatment, xenograft A11, P276-00 35 mg/kg, log base 2 vs pooled control) was 2.053, the “log of median of ratio for IFNE1 gene” value ([2]; acute treatment, xenograft A23, P276-00 35 mg/kg, log base 2 vs pooled control) was 3.252 and the “log of median of ratio for IFNE1 gene” value ([2]; chronic treatment (6-7 days consecutively), xenograft C17, P276-00, log base 2 vs pooled control) was 0.7715. For the same compound, the “log of median of ratio for IFNE1 gene” value ([2]; chronic treatment, xenograft C11, P276-00, log base 2 vs pooled control) was 1.318, the “log of median of ratio for IFNE1 gene” value ([2]; chronic treatment, xenograft C23, P276-00, log base 2 vs pooled control) was 1.326 and the “xenografts with upregulated IFNE1 level by QRT-PCR” value ([3]; acute treatment) was 3 of the 6. The “xenografts with upregulated IFNE1 level by QRT-PCR” value ([3]; chronic treatment) was “most of the xenografts tested”, the “IFNE1 level relative to control untreated cells” value [4] was “significant increase” and the “IFNE1 level relative to control untreated cells” value [5] was “significant increase”. The “IFNE1 level relative to control untreated cells” value [6] was “significant increase” and the “change of IFNE1 mRNA level” value [1] was “upregulation”.

In the case of `OC[C@H]1O[C@@H](n2cnc3cc(Cl)c(Cl)cc32)[C@H](O)[C@@H]1O` [DRB, 5,6-dichloro-1-beta-D-ribofuranosylbenzimidazole], the “change of IFNE1 mRNA level” value [1] is reported as “upregulation”.

In the case of `COc1cccc2c1C(=O)c1c(O)c3c(c(O)c1C2=O)C[C@@](O)(C(=O)CO)C[C@@H]3O[C@H]1C[C@H](N)[C@H](O)[C@H](C)O1` [Doxorubicin], the “change of IFNE1 mRNA level” value [1] is reported as “do not cause a change”.

`COc1cc([C@@H]2c3cc4c(cc3[C@@H](O[C@@H]3O[C@@H]5CO[C@@H](C)O[C@H]5[C@H](O)[C@H]3O)[C@H]3COC(=O)[C@H]23)OCO4)cc(OC)c1O` [Etoposide] was tested, and the “change of IFNE1 mRNA level” value [1] was “do not cause a change”.

`O=C1c2ccccc2-[n+]2ccc3c([nH]c4ccccc43)c21` [Fascaplysin] was tested, and the “change of IFNE1 mRNA level” value [1] was “upregulation”.

With `CN1CC[C@H](c2c(O)cc(O)c3c(=O)cc(-c4ccccc4Cl)oc23)[C@H](O)C1` [Flavopiridol] the “log of median of ratio for IFNE1 gene” value ([2]; acute treatment, xenograft A3, Flavopiridol 2.5 mg/kg, log base 2 vs pooled control) was 2.017, the “log of median of ratio for IFNE1 gene” value ([2]; acute treatment, xenograft A6, Flavopiridol 2.5 mg/kg, log base 2 vs pooled control) was 1.121 and the “log of median of ratio for IFNE1 gene” value ([2]; acute treatment, xenograft A9, Flavopiridol 2.5 mg/kg, log base 2 vs pooled control) was 1.568. For the same compound, the “log of median of ratio for IFNE1 gene” value ([2]; acute treatment, xenograft A15, Flavopiridol 2.5 mg/kg, log base 2 vs pooled control) was 1.228, the “log of median of ratio for IFNE1 gene” value ([2]; acute treatment, xenograft A22, Flavopiridol 2.5 mg/kg, log base 2 vs pooled control) was 1.17 and the “log of median of ratio for IFNE1 gene” value ([2]; chronic treatment, xenograft C6, Flavopiridol, log base 2 vs pooled control) was 2.731. The “log of median of ratio for IFNE1 gene” value ([2]; chronic treatment, xenograft C9, Flavopiridol, log base 2 vs pooled control) was 1.723, the “log of median of ratio for IFNE1 gene” value ([2]; chronic treatment, xenograft C15, Flavopiridol, log base 2 vs pooled control) was 1.595 and the “xenografts with IFNE1 up-regulation by QRT-PCR” value ([3]; acute or chronic not distinguished) was “most of the xenografts tested”. For the same compound, the “IFNE1 up-regulation, log fold change relative to control untreated cells” value ([4]; 12 hours, normalized to Actin) was “up to 7 log fold changes”, the “IFNE1 level relative to control untreated cells” value [4] was “significant increase” and the “IFNE1 level relative to control untreated cells” value [5] was “significant increase”. The “IFNE1 level relative to control untreated cells” value [6] was “significant increase” and the “change of IFNE1 mRNA level” value [1] was “upregulation”.

In the case of `CC(=O)O[C@H]1C(=O)[C@@]2(C)[C@H]([C@H](OC(=O)c3ccccc3)[C@]3(O)C[C@H](OC(=O)[C@H](O)[C@@H](NC(=O)c4ccccc4)c4ccccc4)C(C)=C1C3(C)C)[C@]1(OC(C)=O)CO[C@@H]1C[C@@H]2O` [Paclitaxel], the “change of IFNE1 mRNA level” value [1] is reported as “do not cause a change”.

With `O=c1c(O)c(-c2ccc(O)c(O)c2)oc2cc(O)cc(O)c12` [Quercitin] the “change of IFNE1 mRNA level” value [1] was “do not cause a change”.

`CC[C@H](CO)Nc1nc(NCc2ccccc2)c2ncn(C(C)C)c2n1` [Roscovitine] was tested, and the “change of IFNE1 mRNA level” value [1] was “upregulation; also recorded: potentiated IFNE1 level maximally”.

With `CC[C@]1(O)C[C@@H]2CN(CCc3c([nH]c4ccccc34)[C@@](C(=O)OC)(c3cc4c(cc3OC)N(C)[C@H]3[C@@](O)(C(=O)OC)[C@H](OC(C)=O)[C@]5(CC)C=CCN6CC[C@]43[C@@H]65)C2)C1` [Vinblastin] the “change of IFNE1 mRNA level” value [1] was “do not cause a change”.
